Assay results: patent US10206394B2, “Herbicidal compounds” (Syngenta Participations AG, priority 2014, dated 2019)
Like-named read-outs stand apart in the source and are kept apart here.

Tests used:
Experiment in all cases: Glasshouse assay for herbicidal activity (pre- and post-emergence), percentage phytotoxicity
Format in all cases: in vivo
[1] = system: Alopecurus myosuroides (ALOMY); conditions: Alopecurus myosuroides
Outline: (§1)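 Potted test plants in standard soil received the compound pre-emergence (day 1) or post-emergence (about day 12). Evaluation: visual damage score from 0% (none) to 100% (total), 15 days after application post-emergence, 20 days pre-emergence.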

[2] = system: Avena fatua (AVEFA); conditions: Avena fatua
Outline: as §1

[3] = system: Echinochloa crus-galli (ECHCG); conditions: Echinochloa crus-galli
Outline: as §1

[4] = system: Lolium perenne (LOLPE); conditions: Lolium perenne
Outline: as §1

[5] = post-emergence, 360 h, 250 g/ha, post-emergence, 15 DAA, visual assessment (100%=total damage, 0%=no damage), read-out: Post-emergence herbicidal activity (percentage phytotoxicity) ALOMY POST
[6] = pre-emergence, 480 h, 250 g/ha, pre-emergence, 20 DAA, visual assessment (100%=total damage, 0%=no damage), read-out: Pre-emergence herbicidal activity (percentage phytotoxicity) ALOMY PRE
[7] = post-emergence, 360 h, 250 g/ha, post-emergence, 15 DAA, visual assessment (100%=total damage, 0%=no damage), read-out: Post-emergence herbicidal activity (percentage phytotoxicity) AVEFA POST
[8] = pre-emergence, 480 h, 250 g/ha, pre-emergence, 20 DAA, visual assessment (100%=total damage, 0%=no damage), read-out: Pre-emergence herbicidal activity (percentage phytotoxicity) AVEFA PRE
[9] = post-emergence, 360 h, 250 g/ha, post-emergence, 15 DAA, visual assessment (100%=total damage, 0%=no damage), read-out: Post-emergence herbicidal activity (percentage phytotoxicity) ECHCG POST
[10] = pre-emergence, 480 h, 250 g/ha, pre-emergence, 20 DAA, visual assessment (100%=total damage, 0%=no damage), read-out: Pre-emergence herbicidal activity (percentage phytotoxicity) ECHCG PRE
[11] = post-emergence, 360 h, 250 g/ha, post-emergence, 15 DAA, visual assessment (100%=total damage, 0%=no damage), read-out: Post-emergence herbicidal activity (percentage phytotoxicity) LOLPE POST
[12] = pre-emergence, 480 h, 250 g/ha, pre-emergence, 20 DAA, visual assessment (100%=total damage, 0%=no damage), read-out: Pre-emergence herbicidal activity (percentage phytotoxicity) LOLPE PRE

| SMILES | pest or weed control at 250 g/ha [1, 5] [%] | pest or weed control at 250 g/ha [1, 6] [%] | pest or weed control at 250 g/ha [2, 7] [%] | pest or weed control at 250 g/ha [2, 8] [%] | pest or weed control at 250 g/ha [3, 9] [%] | pest or weed control at 250 g/ha [3, 10] [%] | pest or weed control at 250 g/ha [4, 11] [%] | pest or weed control at 250 g/ha [4, 12] [%] | also measured |
| --- | --- | --- | --- | --- | --- | --- | --- | --- | --- |
| Cc1cc(C)c(C2C(=O)CC(CC(=O)NCc3ccccc3C#N)C2=O)c(C)c1 (stereo not drawn) [Compound A108] |  |  |  |  |  |  |  |  | pest or weed control at 250 g/ha ([1]; post-emergence, 360 h, Rate 250 g/ha, post-emergence, assessed visually 15 DAA, 100%=total damage, 0%=no damage, read-out: Post-emergence herbicidal activity (percentage phytotoxicity) ALOMY POST): 0%; pest or weed control at 250 g/ha ([1]; pre-emergence, 480 h, Rate 250 g/ha, pre-emergence, assessed visually 20 DAA, 100%=total damage, 0%=no damage, read-out: Pre-emergence herbicidal activity (percentage phytotoxicity) ALOMY PRE): 0%; pest or weed control at 250 g/ha ([2]; post-emergence, 360 h, Rate 250 g/ha, post-emergence, assessed visually 15 DAA, 100%=total damage, 0%=no damage, read-out: Post-emergence herbicidal activity (percentage phytotoxicity) AVEFA POST): 60%; pest or weed control at 250 g/ha ([2]; pre-emergence, 480 h, Rate 250 g/ha, pre-emergence, assessed visually 20 DAA, 100%=total damage, 0%=no damage, read-out: Pre-emergence herbicidal activity (percentage phytotoxicity) AVEFA PRE): 0%; pest or weed control at 250 g/ha ([3]; post-emergence, 360 h, Rate 250 g/ha, post-emergence, assessed visually 15 DAA, 100%=total damage, 0%=no damage, read-out: Post-emergence herbicidal activity (percentage phytotoxicity) ECHCG POST): 20%; pest or weed control at 250 g/ha ([3]; pre-emergence, 480 h, Rate 250 g/ha, pre-emergence, assessed visually 20 DAA, 100%=total damage, 0%=no damage, read-out: Pre-emergence herbicidal activity (percentage phytotoxicity) ECHCG PRE): 30%; pest or weed control at 250 g/ha ([4]; post-emergence, 360 h, Rate 250 g/ha, post-emergence, assessed visually 15 DAA, 100%=total damage, 0%=no damage, read-out: Post-emergence herbicidal activity (percentage phytotoxicity) LOLPE POST): 60%; pest or weed control at 250 g/ha ([4]; pre-emergence, 480 h, Rate 250 g/ha, pre-emergence, assessed visually 20 DAA, 100%=total damage, 0%=no damage, read-out: Pre-emergence herbicidal activity (percentage phytotoxicity) LOLPE PRE): 80% |
| COc1cccc(CNC(=O)CC2CC(=O)C(c3c(C)cc(Br)cc3C)C2=O)c1 (stereo not drawn) [Compound B132] | 60 | 80 | 20 | 30 | 80 | 20 | 70 | 80 |  |
| C#CC(C)(C)NC(=O)CC1CC(=O)C(c2c(C)cc(-c3ccc(Cl)cn3)cc2C)C1=O (stereo not drawn) [Compound B363] |  |  |  |  |  |  |  |  | pest or weed control at 250 g/ha ([1]; post-emergence, 360 h, Rate 250 g/ha, post-emergence, visual assessment 15 DAA, 100%=total damage, 0%=no damage, read-out: Post-emergence herbicidal activity (percentage phytotoxicity) ALOMY POST): 90%; pest or weed control at 250 g/ha ([1]; pre-emergence, 480 h, Rate 250 g/ha, pre-emergence, visual assessment 20 DAA, 100%=total damage, 0%=no damage, read-out: Pre-emergence herbicidal activity (percentage phytotoxicity) ALOMY PRE): 100%; pest or weed control at 250 g/ha ([2]; post-emergence, 360 h, Rate 250 g/ha, post-emergence, visual assessment 15 DAA, 100%=total damage, 0%=no damage, read-out: Post-emergence herbicidal activity (percentage phytotoxicity) AVEFA POST): 100%; pest or weed control at 250 g/ha ([2]; pre-emergence, 480 h, Rate 250 g/ha, pre-emergence, visual assessment 20 DAA, 100%=total damage, 0%=no damage, read-out: Pre-emergence herbicidal activity (percentage phytotoxicity) AVEFA PRE): 90%; pest or weed control at 250 g/ha ([3]; post-emergence, 360 h, Rate 250 g/ha, post-emergence, visual assessment 15 DAA, 100%=total damage, 0%=no damage, read-out: Post-emergence herbicidal activity (percentage phytotoxicity) ECHCG POST): 100%; pest or weed control at 250 g/ha ([3]; pre-emergence, 480 h, Rate 250 g/ha, pre-emergence, visual assessment 20 DAA, 100%=total damage, 0%=no damage, read-out: Pre-emergence herbicidal activity (percentage phytotoxicity) ECHCG PRE): 100%; pest or weed control at 250 g/ha ([4]; post-emergence, 360 h, Rate 250 g/ha, post-emergence, visual assessment 15 DAA, 100%=total damage, 0%=no damage, read-out: Post-emergence herbicidal activity (percentage phytotoxicity) LOLPE POST): 90%; pest or weed control at 250 g/ha ([4]; pre-emergence, 480 h, Rate 250 g/ha, pre-emergence, visual assessment 20 DAA, 100%=total damage, 0%=no damage, read-out: Pre-emergence herbicidal activity (percentage phytotoxicity) LOLPE PRE): 100% |
| COc1ccc(CNC(=O)CC2CC(=O)C(c3c(C)cc(-c4ncc(F)cn4)cc3C)C2=O)cc1 (stereo not drawn) [Compound B271] |  |  |  |  |  |  |  |  | pest or weed control at 250 g/ha ([1]; post-emergence, 360 h, POST-emergence, rate 250 g/ha, visual score 15 DAA (100%=total damage, 0%=no damage), read-out: Post-emergence herbicidal activity (percentage phytotoxicity) ALOMY POST): 100%; pest or weed control at 250 g/ha ([1]; pre-emergence, 480 h, PRE-emergence, rate 250 g/ha, visual score 20 DAA (100%=total damage, 0%=no damage), read-out: Pre-emergence herbicidal activity (percentage phytotoxicity) ALOMY PRE): 80%; pest or weed control at 250 g/ha ([2]; post-emergence, 360 h, POST-emergence, rate 250 g/ha, visual score 15 DAA (100%=total damage, 0%=no damage), read-out: Post-emergence herbicidal activity (percentage phytotoxicity) AVEFA POST): 100%; pest or weed control at 250 g/ha ([2]; pre-emergence, 480 h, PRE-emergence, rate 250 g/ha, visual score 20 DAA (100%=total damage, 0%=no damage), read-out: Pre-emergence herbicidal activity (percentage phytotoxicity) AVEFA PRE): 80%; pest or weed control at 250 g/ha ([3]; post-emergence, 360 h, POST-emergence, rate 250 g/ha, visual score 15 DAA (100%=total damage, 0%=no damage), read-out: Post-emergence herbicidal activity (percentage phytotoxicity) ECHCG POST): 100%; pest or weed control at 250 g/ha ([3]; pre-emergence, 480 h, PRE-emergence, rate 250 g/ha, visual score 20 DAA (100%=total damage, 0%=no damage), read-out: Pre-emergence herbicidal activity (percentage phytotoxicity) ECHCG PRE): 100%; pest or weed control at 250 g/ha ([4]; post-emergence, 360 h, POST-emergence, rate 250 g/ha, visual score 15 DAA (100%=total damage, 0%=no damage), read-out: Post-emergence herbicidal activity (percentage phytotoxicity) LOLPE POST): 90%; pest or weed control at 250 g/ha ([4]; pre-emergence, 480 h, PRE-emergence, rate 250 g/ha, visual score 20 DAA (100%=total damage, 0%=no damage), read-out: Pre-emergence herbicidal activity (percentage phytotoxicity) LOLPE PRE): 80% |
| Cc1cc(-c2ncc(Cl)cc2F)cc(C)c1C1C(=O)CC(CC(=O)NCC(C)C)C1=O (stereo not drawn) [Compound B124] | 100 | 90 | 100 | 100 | 100 | 100 | 100 | 100 |  |
| Cc1cc(C)c(C2C(=O)CC(CC(=O)NCC=C(Cl)Cl)C2=O)c(C)c1 (stereo not drawn) [Compound B159] | 70 | 80 | 90 | 0 | 80 | 90 | 90 | 90 |  |
